Results on four molecules are retold here after ChEMBL document CHEMBL1201862, “PubChem BioAssay data set” (2004).

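Test compounds were applied to cells in 96-well plates for 48 hours at 5 doses. GI50 marks 50% less growth.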 Calls of active or inactive are those of the source. Rule as the data show it: active = GI50 up to about 1.1 µM and inactive = higher.

Some test systems named below: M19-MEL; RXF 393; CCRF-CEM; SF-539; Malme-3M; LOX IMVI; MCF7; U-251; DLD-1; XF498; OVCAR-5; SK-MEL-2; IGROV-1; OVCAR-4; HOP-62; UACC-62; OVCAR-8; HCT-116; TK-10; M14.
Common to all, as to experiment: DTP human tumour cell line panel, 48 h

The term GI50 denotes the concentration at which growth is held to half of that of the control.

Regarding `O=C1ON(Cc2ccccc2)C(c2ccccc2)N1c1ccccc1` (stereo not drawn), the GI50 in the test on M19-MEL, in the test on RXF 393, in the test on CCRF-CEM, with SF-539, in the test with Malme-3M and in the test on LOX IMVI was > 100 µM (inactive) throughout. Also, the GI50 in the test on MCF7, with U-251, with DLD-1, in the test with XF498, in the test on OVCAR-5 and in the test with SK-MEL-2 was > 100 µM (inactive) each time. Also, the GI50 was > 100 µM (inactive) in the test with IGROV-1; > 100 µM (inactive) in the test on OVCAR-4; > 100 µM (inactive) in the test on HOP-62; 98.9 µM (inactive) in the test on UACC-62; > 100 µM (inactive) with OVCAR-8; > 100 µM (inactive) in the test on HCT-116.
In the case of `O=NN1C(c2ccccc2)CCCC1c1ccccc1` (stereo not drawn), the GI50 is 85.9 µM (inactive) with M19-MEL; 44.5 µM (inactive) with RXF 393; 52.1 µM (inactive) with CCRF-CEM; > 100 µM (inactive) in the test with SF-539; > 65.5 µM (inactive) in the test on Malme-3M; 74.8 µM (inactive) in the test with LOX IMVI. The GI50 was 37.9 µM (inactive) in the test on MCF7; 75.5 µM (inactive) in the test with U-251; > 90.6 µM (inactive) in the test on DLD-1; 31.7 µM (inactive) with XF498; > 100 µM (inactive) with OVCAR-5; 45.9 µM (inactive) in the test on SK-MEL-2. The GI50 in the test with IGROV-1 is > 89.7 µM (inactive); with OVCAR-4, 35.9 µM (inactive); in the test on HOP-62 it was > 100 µM (inactive); in the test with UACC-62 it was > 94.8 µM (inactive); with OVCAR-8, > 43.8 µM (inactive); in the test on HCT-116, 47.9 µM (inactive).
For the molecule `COC(=O)c1ccc(/N=N/N(C)COc2ccc([N+](=O)[O-])cc2)cc1`, the GI50 was > 100 µM (inactive) with M19-MEL; > 85.3 µM (inactive) in the test on RXF 393; 58.2 µM (inactive) in the test on CCRF-CEM; 88.7 µM (inactive) in the test on SF-539; > 100 µM (inactive) with Malme-3M; > 86.9 µM (inactive) in the test with LOX IMVI. Further, the GI50 with MCF7 is > 81.5 µM (inactive); in the test with U-251, > 100 µM (inactive); in the test with DLD-1, > 100 µM (inactive); in the test on XF498, > 100 µM (inactive); with OVCAR-5 it was > 95.7 µM (inactive); with SK-MEL-2, > 80.9 µM (inactive). The GI50 is > 100 µM (inactive) in the test on IGROV-1; > 100 µM (inactive) in the test with OVCAR-4; > 100 µM (inactive) in the test on HOP-62; 33.3 µM (inactive) with UACC-62; > 100 µM (inactive) in the test with OVCAR-8; > 100 µM (inactive) with HCT-116.
Regarding `O=C1C=CC2=[N+]([O-])C(c3ccccc3)(c3ccccc3)/C(=N\c3ccccc3)C2=C1`, the GI50 in the test on M19-MEL is 1.77 µM (inactive); in the test on RXF 393 it was 1.6 µM (inactive); with CCRF-CEM, 0.407 µM (active); with SF-539 it was 6.85 µM (inactive); in the test with Malme-3M, 2.29 µM (inactive); in the test on LOX IMVI, 1.8 µM (inactive). Besides, the GI50 is 2.5 µM (inactive) in the test with U-251; 1.8 µM (inactive) in the test with TK-10; 1.53 µM (inactive) in the test on DLD-1; 1.31 µM (inactive) with XF498; 16.4 µM (inactive) in the test with OVCAR-5; 18.2 µM (inactive) in the test with SK-MEL-2. Besides, the GI50 is 1.82 µM (inactive) with IGROV-1; 1.8 µM (inactive) in the test on OVCAR-4; 1.97 µM (inactive) with M14; 14.6 µM (inactive) in the test with HOP-62; 2.1 µM (inactive) with UACC-62; 1.75 µM (inactive) in the test with OVCAR-8. Also, the GI50 in the test with HCT-116 was 1.97 µM (inactive).
